Structures can show the parent of a compound that is named as a salt. Where two headings read alike, the source gives them in different places.
How the values were obtained:
tumor cells = settings: Cancer Chemothr. Pharmacol., 30, 51-57 (1992); cited from earlier work
[1] = humans, cited from earlier work
[2] = tested on: Human small cell lung cancer LX-1 cell strain; assay: Antitumor activity against subcutaneously transplanted LX-1 tumor in nude mice; assay type: in vivo; settings: single agent at maximum tolerated dose (amrubicin hydrochloride 25 mg/kg; cisplatin 10 mg/kg), single intravenous administration, measured for 23 days
Protocol: Human small cell lung cancer LX-1 cell strain was subcutaneously transplanted to nude mice (80 animals) at 5 weeks of age. After 15 days from the tumor transplantation, 36 animals having a tumor volume of about 200 to 500 mm^3 were allotted to 6 groups consisting of 6 animals per group. On the same day, the animals received intravenous administration, respectively, of physiological saline for “vehicle group”, the maximum tolerated dose of amrubicin hydrochloride (25 mg/kg) for “an amrubicin hydrochloride alone administration group”, the maximum tolerated dose of cisplatin (10 mg/kg) for “cisplatin alone administration group”, 0.5 times of the maximum tolerated dose of amrubicin hydrochloride and 0.5 times of the maximum tolerated dose of cisplatin for “combined administration group (0.5×MTD)”, 0.8 times of the maximum tolerated dose of amrubicin hydrochloride and 0.8 times of the maximum tolerated dose of cisplatin for “combined administration group (0.8×MTD)”, the maximum tolerated dose of amrubicin hydrochloride and the maximum tolerated dose of cisplatin for “combined administration group (1×MTD)”. Thereafter, tumor volume and body weight of the mice were measured for 23 days. […]
The minimum T/C % was calculated as follows: […]

[3] = rabbit chronic experimental model; Invest. New Drug, 15, 219-225 (1997); cited from earlier work

## CC(O)[C@]1(N)Cc2c(O)c3c(c(O)c2[C@@H](O[C@H]2C[C@H](O)[C@H](O)CO2)C1)C(=O)c1ccccc1C3=O (stereo partly shown) [amrubicinol]
Tumor cells
  inhibitory activity against growth of tumor cells compared with amrubicin: considerably stronger

## CC(=O)[C@]1(N)Cc2c(O)c3c(c(O)c2[C@@H](OC2CC(O)C(O)CO2)C1)C(=O)c1ccccc1C3=O (stereo partly shown) [amrubicin hydrochloride]
[1]; administration in 3 continuous days
  maximum tolerated dose: 50 mg/m^2 per day
[1]; once a day single dose
  maximum tolerated dose: 130 mg/m^2
[2]
  Minimum T/C %: 55%

## CC(=O)[C@]1(N)Cc2c(O)c3c(c(O)c2[C@@H](O[C@H]2C[C@H](O)[C@H](O)CO2)C1)C(=O)c1ccccc1C3=O [amrubicin, (+)-(7S,9S)-9-acetyl-9-amino-7-[(2-deoxy-β-D-erythro-pentopyranosyl)oxy]-7,8,9,10-tetrahydro-6,11-dihydroxy-5,12-naphthacenedione]
[3]
  cardiac toxicity compared with doxorubicin: far weaker than doxorubicin

## N.N.[Cl][Pt][Cl] [cisplatin, cis-diammin dichloroplatinum]
[1]
  maximum tolerated dose: 90 mg/m^2
[2]
  Minimum T/C %: 68%
